System: Pigmented human epidermal equivalents (MelanoDerm™)
Experiment: In vitro test for depigmentation activity in pigmented human epidermal equivalents (MelanoDerm, MEL-300-B)
Assay type: cell-based
Details: applied topically daily for 8 days, measured on day 9
From the text: Pigmented human epidermal equivalents (MelanoDerm™) from MatTek Corporation (Ashland, Mass.) were used to assess the depigmentation activity of test materials. MelanoDerm™ consists of normal, human-derived epidermal keratinocytes (NHEK) and melanocytes (NHM) which have been cultured to form a multilayered, highly differentiated model of the human epidermis. Specifically, MEL-300-B tissues, each 9 mm in diameter were used in the following tests.
The Example 2 ascorbic acid powder mixture was compared with 1% Ascorbic Acid 2-Glucoside (Hayashibara Co Ltd, Japan) in a solvent of 70% ethyl alcohol and 30% butylene glycol as a benchmark. Test materials were applied topically to the MelanoDerm™ skin model daily and the experiment lasted for 8 days. Measurement was taken on day 9. The macroscopic and microscopic visual tissue darkening end points were measured by taking pictures with a digital camera. The Degree of Lightness for each tissue (L-Value) was measured using a spectrophotometer (Konica Minolta CM-2600d). The ΔL (degree of lightness as compared to control) for each test sample is calculated as per following formula: […]
Degree of skin lightness:
ΔL*=L*-value of treated sample−L*-value of control sample.
ΔMexa Index=Melanin Index of control−Melanin Index of treated sample.

## O=C1O[C@H]([C@@H](O)CO)C(O)=C1O[C@H]1O[C@H](CO)[C@@H](O)[C@H](O)[C@H]1O [1% ascorbic acid 2-glucoside in vehicle, Ascorbic Acid 2-Glucoside]
  Δ Mexa Index (Melanin Index of control minus treated sample): 145.67
spectrophotometer
  Δ L-value (degree of skin lightness, treated minus control): 2.34

From patent publication US20150359742A1, “COMPOSITIONS AND METHODS FOR ENHANCING THE TOPICAL APPLICATION OF A BENEFIT AGENT INCLUDING POWDER TO LIQUID PARTICLES AND A SECOND POWDER” (Johnson & Johnson Consumer Inc., priority 2014, published 2015)
